Legend:
[1] = Uptake and excretion from red cabbage broth, human self-experiment (24 h urine, LC-MS/MS); format: in vivo; conditions: male, 500 mL red cabbage broth, oral, n = 3, mean ± SD, read-out: recovery in collected urine within 24 h compared to the amount of intake
Protocol: To obtain the GLS degradation products allyl HTT and 4-MSOB HTT in the food matrix, a kitchen practice approach was applied. Therefore, 1.2 kg of fresh conventional red cabbage (Brassica oleracea var. capitata f. rubra) bought in a supermarket were cut into approximately 4 × 4 × 4 cm pieces and boiled for 1 h in 3 L of tap water without additives in a stainless-steel pot with a glass lid on a kitchen stove. After cooling to room temperature, three male authors of this study (27–39 years) drank 500 mL of the red cabbage boiling solution (broth) without red cabbage pieces. […] In total, 950 μL of 1:1 diluted red cabbage boiling solution was measured in 3 different ways (each prepared as duplicates): (1) Spiked with 50 μL water, (2) spiked with 50 μL of a solution with concentrations of 1 μM for allyl HTT and 5 μM for 4-MSOB HTT, or (3) spiked with 50 μL of a solution with concentrations of 3 μM for allyl HTT and 10 μM for 4-MSOB HTT. Urine samples were measured in three different ways (each prepared as duplicates): 200 μL of undiluted urine was spiked with (1) 1 μL of water, (2) 1 μL of a solution with concentrations of 4 μM for allyl HTT and 8 μM for 4-MSOB HTT, or (3) 1.5 μL of a solution with concentrations of 4 μM for allyl HTT and 8 μM for 4-MSOB HTT. […]

HepG2 cells = assay: Metabolite formation in medium after 24 h incubation with HepG2 cells (HPLC-UV, qToF); format: in vitro ADME, human; conditions: 100 μM, 24 h with HepG2 cells, vs spiked medium without cells
Protocol: Additionally, the removed non-spiked and spiked medium after 24 h of cell incubation was measured by the UPLC-DAD system (see Section Stability of 4-Hydroxythiazolidine-2-Thiones in a Stomach Model) and HPLC method 2 at 280 ± 2 nm and after 10-fold pre-concentration, using solid-phase extraction (Chromabond®, C18, 3 mL/500 mg, Macherey-Nagel) by an HPLC-DAD-ESI-qToF system (Agilent 1290 Infinity II for the binary pump, Agilent 1290 Infinity for autosampler, degasser, column oven, Agilent 1260 Infinity for DAD detector, and Agilent 1260 Infinity II, for an isocratic pump for adding reference mass solution) using A = water and B = MeCN: 0 to 3 min 2% B, an increase to 14 min up to 98% B, holding for 5.4 min followed by a decrease to 2% B at 20 min, and re-equilibration with 2% B for 4.5 min, using a flow rate of 300 μL/min, Agilent Zorbax Eclipse Plus C8 column (see Section Stability of 4-Hydroxythiazolidine-2-Thiones in a Stomach Model), and a column oven temperature of 35°C. […]

[2] = Antioxidant potential, ABTS assay; conditions: compared to compound free blank
Protocol: (§1) To evaluate the potential of allyl HTT and 4-MSOB HTT to act as antioxidants, ABTS and DPPH were used as model radicals and Trolox as reference antioxidants based on Shalaby and Shanab ([28]). In total, 1.5 mg of ABTS and 0.26 mg potassium peroxodisulfate were dissolved in 4 mL of pure water and incubated in the dark overnight at room temperature. Afterward, 36 mL of MeOH were added to obtain the fresh ABTS working solution. In the case of the DPPH assay, 1.1 mg of DPPH were dissolved in 4 mL of MeOH and incubated for 2 h in the dark at 4°C, followed by the addition of 36 mL of MeOH to obtain the fresh DPPH working solution. Standards of Trolox, allyl HTT, and 4-MSOB HTT were prepared in water/MeOH (90/10, v/v%) at concentrations in the range of 6.25–100 μM. To detect the antioxidant potential, 100 μL of standard or water/MeOH (90/10, v/v%) as control were added to 1,000 μL of ABTS or DPPH working solution, and the extinction was measured directly after mixing and after 6 min of incubation in the dark with a spectrometer (UviLine 9100, Schott Instruments, Mainz, Germany) at 734 nm in the case of ABTS assay and 515 nm in DPPH assay (each prepared as duplicate). The results are reported as mean ± SD of the reduction of the extinction compared to the control.

[3] = Antioxidant potential, DPPH assay; conditions: compared to compound free blank
Protocol: as §1

## C[S+]([O-])CCCCN1C(=S)SCC1O (stereo not drawn) [4-MSOB HTT, 4-hydroxy-3-(4-(methylsulfinyl)butyl)thiazolidine-2-thione]
[1]
  dose excreted: 21 ± 4%
HepG2 cells
  newly formed metabolites in spiked medium (LC-UV chromatogram): a new peak was observed
[2]; 6.25 µM
  Relative signal reduction of the extinction value of the radical ABTS: 0.6 ± 0.5%
[2]; 12.5 µM
  Relative signal reduction of the extinction value of the radical ABTS: -0.1 ± 0.5%
[2]; 25 µM
  Relative signal reduction of the extinction value of the radical ABTS: -0.5 ± 0.4%
[2]; 50 µM
  Relative signal reduction of the extinction value of the radical ABTS: 1.1 ± 0.8%
[2]; 100 µM
  Relative signal reduction of the extinction value of the radical ABTS: 0.4 ± 0.5%
[3]; 6.25 µM
  Relative signal reduction of the extinction value of the radical DPPH: 0.3 ± 0.4%
[3]; 12.5 µM
  Relative signal reduction of the extinction value of the radical DPPH: 0.0 ± 0.3%
[3]; 25 µM
  Relative signal reduction of the extinction value of the radical DPPH: 0.3 ± 0.3%
[3]; 50 µM
  Relative signal reduction of the extinction value of the radical DPPH: 0.3 ± 0.4%
[3]; 100 µM
  Relative signal reduction of the extinction value of the radical DPPH: 0.3 ± 0.4%

## C=CCN1C(=S)SCC1O (stereo not drawn) [allyl HTT, 3-allyl-4-hydroxythiazolidine-2-thione]
[1]
  dose excreted: 18 ± 5%
HepG2 cells
  newly formed metabolites in spiked medium (LC-UV chromatogram): did not show any additional signals
[2]; 6.25 µM
  Relative signal reduction of the extinction value of the radical ABTS: -0.2 ± 0.3%
[2]; 12.5 µM
  Relative signal reduction of the extinction value of the radical ABTS: -0.3 ± 0.3%
[2]; 25 µM
  Relative signal reduction of the extinction value of the radical ABTS: 0.4 ± 0.4%
[2]; 50 µM
  Relative signal reduction of the extinction value of the radical ABTS: 0.3 ± 0.5%
[2]; 100 µM
  Relative signal reduction of the extinction value of the radical ABTS: -0.3 ± 0.3%
[3]; 6.25 µM
  Relative signal reduction of the extinction value of the radical DPPH: 0.2 ± 0.3%
[3]; 12.5 µM
  Relative signal reduction of the extinction value of the radical DPPH: 0.0 ± 0.3%
[3]; 25 µM
  Relative signal reduction of the extinction value of the radical DPPH: 0.1 ± 0.3%
[3]; 50 µM
  Relative signal reduction of the extinction value of the radical DPPH: 0.1 ± 0.3%
[3]; 100 µM
  Relative signal reduction of the extinction value of the radical DPPH: 0.0 ± 0.3%

Source: PMC9354954, “Assessing Bioavailability and Bioactivity of 4-Hydroxythiazolidine-2-Thiones, Newly Discovered Glucosinolate Degradation Products Formed During Domestic Boiling of Cabbage” (Frontiers in Nutrition, 2022)
